One assay has as its system MT2. As to the kind of experiment: Concentration required to inhibit 50% of host cell replication in MT-2 cells used against HIV studies. The class given is functional, cell-based. Conditions: Homo sapiens.
In a further assay the test system is Human alphaherpesvirus 2. As to the kind of experiment: Concentration required to inhibit 50% of HSV-2 replication. The class given is functional, organism-based.
The subject of another assay is Hepatitis B virus. As to the kind of experiment: Concentration required to inhibit 50% of Hepatitis B virus replication. The class given is functional, organism-based.
The test system of assay [1] is Human immunodeficiency virus 1. As to the kind of experiment: Concentration required to inhibit 50% of HIV-IIIB virus replication. The class given is functional, organism-based.
In a further assay the test system is CCRF-CEM. As to the kind of experiment: Concentration required to inhibit 50% of CCRF-CEM cell replication, tested up to a concentration of 100 uM. The assay is classed as functional, cell-based. Conditions: Homo sapiens.
Another assay has as its system Human alphaherpesvirus 1. As to the kind of experiment: Concentration required to inhibit 50% of HSV-1 replication. The class given is functional, organism-based.
Another assay concerns L1210. As to the kind of experiment: Concentration required to inhibit 50% of leukemia L1210 cell replication, tested up to a concentration of 100 uM. The class given is functional, cell-based. The note with it: Mus musculus.
The subject of another assay is B16-F10. As to the kind of experiment: Concentration required to inhibit 50% of B16F10 cell replication, tested up to a concentration of 100 uM. The class given is functional, cell-based. Conditions: Mus musculus.
A further assay has as its system Vero. As to the kind of experiment: Concentration required to inhibit 50% of host cell replication in Vero cell used against HSV-1 and HSV-2 studies. The class given is functional, cell-based. The note with it: Chlorocebus sabaeus.
Another assay has as its system HepG2. As to the kind of experiment: Concentration required to inhibit 50% of host cell replication in human hepatoma (2.2.15) cells used against HBV studies. The class given is functional, cell-based.
A further assay has as its system P388. As to the kind of experiment: Concentration required to inhibit 50% of P388 cell replication, tested up to a concentration of 100 uM. The class given is functional, cell-based. The note with it: Mus musculus.

pEC50, pIC50: −log10 of the molar value.

Results on eleven compounds are retold here after ChEMBL document CHEMBL1132735, “Synthesis and biological evaluation of L- and D-configuration 1,3-dioxolane 5-azacytosine and 6-azathymine nucleosides” (Bioorg Med Chem Lett, 2000).

The term pIC50 denotes −log10 of the IC50, conventionally taken in molar units. Higher therefore signals a low IC50. Usually pEC50 stands for the EC50 on a negative log10 scale, so that one unit is a factor of ten. Read a low pEC50 as a high EC50.

Consider `Cc1nn(C[C@@H]2CO[C@H](CO)O2)c(=O)[nH]c1=O`, for which the pIC50 was less than 4.00 in the assay on MT2, less than 4.30 with Vero and less than 4.30 in the assay on HepG2. Moreover, the pEC50 was less than 4.30 with Human alphaherpesvirus 2; less than 4.70 in the assay with Hepatitis B virus; less than 4.00 in assay [1]; less than 4.00 in the assay on CCRF-CEM; less than 4.30 in the assay on Human alphaherpesvirus 1; less than 4.00 in the assay with L1210. Besides, the pEC50 in the assay with B16-F10 and in the assay on P388 was less than 4.00 each time.

As to `Nc1ncn(C[C@H]2CO[C@@H](CO)O2)c(=O)n1`, the negative-log IC50 (pIC50) in the assay on MT2 was 4.49; in the assay with Vero, 4.52; with HepG2, 4.57. The negative-log EC50 (pEC50) in the assay with Human alphaherpesvirus 2 was less than 4.30; with Hepatitis B virus it was 5.20; in assay [1], 6.00; in the assay on CCRF-CEM, 4.10; in the assay on Human alphaherpesvirus 1, less than 4.30; in the assay with L1210 it was 4.05. The negative-log EC50 (pEC50) in the assay with B16-F10 was 4.22; in the assay with P388 it was 4.15.

Turning to `Cc1nn(C[C@@H]2CO[C@@H](CO)O2)c(=O)[nH]c1=O`, the negative-log IC50 (pIC50) is less than 4.00 in the assay on MT2, less than 4.30 with Vero and less than 4.30 with HepG2. For the same compound, the pEC50 was less than 4.30 with Human alphaherpesvirus 2; less than 4.70 in the assay with Hepatitis B virus; less than 4.00 in assay [1]; less than 4.00 in the assay with CCRF-CEM; less than 4.30 in the assay with Human alphaherpesvirus 1; less than 4.00 in the assay on L1210. Besides, the pEC50 in the assay on B16-F10 and in the assay on P388 was less than 4.00 each time.

Turning to `Nc1ncn(C[C@@H]2CO[C@@H](CO)O2)c(=O)n1`, the pIC50 with MT2 is 4.57; in the assay with Vero it was 4.55; in the assay on HepG2 it was 4.60. Moreover, the pEC50 in the assay with Human alphaherpesvirus 2 was less than 4.30; with Hepatitis B virus, less than 4.70; in [1], less than 4.00; with CCRF-CEM, 4.15; with Human alphaherpesvirus 1, less than 4.30; with L1210 it was 4.10. For the same compound, the figures for the pEC50 in the assay on B16-F10 and with P388 were 4.10 and 4.15, respectively.

Take `Nc1ncn(C[C@@H]2CO[C@H](CO)O2)c(=O)n1`: the pIC50 with MT2 was 4.77; in the assay on Vero, 4.92; in the assay on HepG2, 4.77. The pEC50 with Human alphaherpesvirus 2 is less than 4.30; in the assay with Hepatitis B virus, 6.22; in [1] it was 5.30; with CCRF-CEM, 4.70; in the assay with Human alphaherpesvirus 1, 4.49; in the assay with L1210 it was 4.15. Moreover, the pEC50 was 4.15 with B16-F10 and 4.05 with P388.

As for `Cc1nn(C[C@H]2CO[C@@H](CO)O2)c(=O)[nH]c1=O`, the pIC50 in the assay on MT2 was less than 4.00; in the assay with Vero, less than 4.30; with HepG2 it was less than 4.30. The pEC50 was less than 4.30 in the assay on Human alphaherpesvirus 2; less than 4.70 with Hepatitis B virus; less than 4.00 in assay [1]; less than 4.00 with CCRF-CEM; less than 4.30 in the assay on Human alphaherpesvirus 1; less than 4.00 in the assay on L1210. The pEC50 with B16-F10 and in the assay with P388 was less than 4.00 in each case.

Consider `Cc1nn(C[C@H]2CO[C@H](CO)O2)c(=O)[nH]c1=O`, for which the results for the pIC50 in the assay on MT2, in the assay with Vero and in the assay on HepG2 were less than 4.00, less than 4.30 and less than 4.30, respectively. Besides, the pEC50 is less than 4.30 with Human alphaherpesvirus 2; less than 4.70 in the assay on Hepatitis B virus; less than 4.00 in assay [1]; less than 4.00 in the assay on CCRF-CEM; less than 4.30 in the assay on Human alphaherpesvirus 1; less than 4.00 in the assay on L1210. Also, the pEC50 in the assay on B16-F10 and with P388 was less than 4.00 throughout.

In the case of `Nc1ncn(C[C@H]2CO[C@H](CO)O2)c(=O)n1`, the negative logarithm of the IC50 (pIC50) was 4.74 in the assay with MT2, 4.51 with Vero and 4.77 in the assay on HepG2. Besides, the pEC50 is less than 4.30 in the assay with Human alphaherpesvirus 2; 5.19 in the assay on Hepatitis B virus; less than 4.00 in assay [1]; 4.52 in the assay on CCRF-CEM; less than 4.30 with Human alphaherpesvirus 1; 4.15 with L1210. Besides, the negative logarithm of the EC50 (pEC50) with B16-F10 is 4.15; in the assay on P388, 4.19.

In the case of `Nc1nc2c(ncn2COCCO)c(=O)[nH]1` [ACYCLOVIR], the negative-log EC50 (pEC50) in the assay on Human alphaherpesvirus 2 was 4.46; in the assay on Human alphaherpesvirus 1 it was 4.64. For the same compound, in the assay with Vero, the pIC50 is less than 4.30.

`Cc1cn([C@H]2C=C[C@@H](CO)O2)c(=O)[nH]c1=O` [STAVUDINE]: the negative logarithm of the IC50 (pIC50) in the assay on MT2 was less than 4.00. The pEC50 in the assay with Hepatitis B virus is less than 4.70; in assay [1], 6.22.

For `Nc1ccn([C@H]2CC[C@@H](CO)O2)c(=O)n1` [ZALCITABINE], the pEC50 in the assay on Hepatitis B virus is 5.64. For the same compound, the pIC50 with HepG2 was less than 4.43.
